According to the supplement of paper PMC10307832:

Tests used:
Experiment in all cases: relative viability (nuclei count vs DMSO), 5 days (fraction); higher = more cells survive
Dabrafenib + Crizotinib = compound: CC(C)(C)c1nc(-c2cccc(NS(=O)(=O)c3c(F)cccc3F)c2F)c(-c2ccnc(N)n2)s1 [Dabrafenib] + C[C@@H](Oc1cc(-c2cnn(C3CCNCC3)c2)cnc1N)c1c(Cl)ccc(F)c1Cl [Crizotinib] (partner 1 µM)
Procedure, shortened: (§1)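 The day after seeding in 1536-well plates, lung cancer cell lines were treated by pin tool with a single drug, or with a fixed anchor-drug dose together with five library-drug doses (not always all listed) in √10 steps. After 5 days, a combined fix-and-stain solution (final 0.05% Triton X-100, 1% formaldehyde, 1 ug/ml Hoechst) was added. Nuclei counted on 4× images gave relative viability as treated counts over vehicle counts, reported as the median of duplicate plates.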

Dabrafenib + Luminespib = compound: CC(C)(C)c1nc(-c2cccc(NS(=O)(=O)c3c(F)cccc3F)c2F)c(-c2ccnc(N)n2)s1 [Dabrafenib] + CCNC(=O)c1noc(-c2cc(C(C)C)c(O)cc2O)c1-c1ccc(CN2CCOCC2)cc1 [Luminespib] (partner 0.01 µM)
Procedure, shortened: as §1

Dabrafenib + Pemetrexed = compound: CC(C)(C)c1nc(-c2cccc(NS(=O)(=O)c3c(F)cccc3F)c2F)c(-c2ccnc(N)n2)s1 [Dabrafenib] + Nc1nc2[nH]cc(CCc3ccc(C(=O)N[C@@H](CCC(=O)O)C(=O)O)cc3)c2c(=O)[nH]1 [Pemetrexed] (partner 0.2 µM)
Procedure, shortened: as §1

VX-702 + OSI-027 = compound: NC(=O)c1ccc(N(C(N)=O)c2c(F)cccc2F)nc1-c1ccc(F)cc1F [VX-702] + COc1cccc2cc(-c3nc([C@H]4CC[C@H](C(=O)O)CC4)n4ncnc(N)c34)[nH]c12 [OSI-027] (partner 0.5 µM)
Procedure, shortened: as §1

Cell Line: EMC-BAC-2
- relative viability (Dabrafenib + Crizotinib; first compound 0.003 µM): 0.859
- relative viability (Dabrafenib + Crizotinib; first compound 0.009487 µM): 0.749
- relative viability (Dabrafenib + Crizotinib; first compound 0.03 µM): 0.678
- relative viability (Dabrafenib + Crizotinib; first compound 0.09487 µM): 0.672
- relative viability (Dabrafenib + Crizotinib; first compound 0.3 µM): 0.828
- relative viability (Dabrafenib + Luminespib; first compound 0.003 µM): 1.16
- relative viability (Dabrafenib + Luminespib; first compound 0.009487 µM): 1.23
- relative viability (Dabrafenib + Luminespib; first compound 0.03 µM): 1
- relative viability (Dabrafenib + Luminespib; first compound 0.09487 µM): 1.13
- relative viability (Dabrafenib + Luminespib; first compound 0.3 µM): 1.28
- relative viability (Dabrafenib + Pemetrexed; first compound 0.009487 µM): 0.401
- relative viability (Dabrafenib + Pemetrexed; first compound 0.03 µM): 0.392
- relative viability (Dabrafenib + Pemetrexed; first compound 0.09487 µM): 0.32
- relative viability (Dabrafenib + Pemetrexed; first compound 0.3 µM): 0.377
- relative viability (VX-702 + OSI-027; first compound 0.02 µM): 0.372
- relative viability (VX-702 + OSI-027; first compound 0.2 µM): 0.404
- relative viability (VX-702 + OSI-027; first compound 0.6325 µM): 0.355
- relative viability (VX-702 + OSI-027; first compound 2 µM): 0.313

Cell Line: EPLC-272H
- relative viability (Dabrafenib + Crizotinib; first compound 0.009487 µM): 1.17
- relative viability (Dabrafenib + Crizotinib; first compound 0.03 µM): 0.784
- relative viability (Dabrafenib + Crizotinib; first compound 0.09487 µM): 0.976
- relative viability (Dabrafenib + Crizotinib; first compound 0.3 µM): 0.83
- relative viability (Dabrafenib + Luminespib; first compound 0.003 µM): 0.156
- relative viability (Dabrafenib + Luminespib; first compound 0.009487 µM): 0.233
- relative viability (Dabrafenib + Luminespib; first compound 0.03 µM): 0.467
- relative viability (Dabrafenib + Luminespib; first compound 0.09487 µM): 0.272
- relative viability (Dabrafenib + Luminespib; first compound 0.3 µM): 0.546
- relative viability (Dabrafenib + Pemetrexed; first compound 0.003 µM): 0.273
- relative viability (Dabrafenib + Pemetrexed; first compound 0.009487 µM): 0.271
- relative viability (Dabrafenib + Pemetrexed; first compound 0.03 µM): 0.304
- relative viability (Dabrafenib + Pemetrexed; first compound 0.09487 µM): 0.262
- relative viability (Dabrafenib + Pemetrexed; first compound 0.3 µM): 0.488
- relative viability (VX-702 + OSI-027; first compound 0.02 µM): 0.298
- relative viability (VX-702 + OSI-027; first compound 0.2 µM): 0.304
- relative viability (VX-702 + OSI-027; first compound 0.6325 µM): 0.279
- relative viability (VX-702 + OSI-027; first compound 2 µM): 0.248

Cell Line: H3255
- relative viability (Dabrafenib + Crizotinib; first compound 0.003 µM): 0.968
- relative viability (Dabrafenib + Crizotinib; first compound 0.009487 µM): 1.19
- relative viability (Dabrafenib + Crizotinib; first compound 0.03 µM): 0.954
- relative viability (Dabrafenib + Crizotinib; first compound 0.09487 µM): 0.873
- relative viability (Dabrafenib + Crizotinib; first compound 0.3 µM): 0.906
- relative viability (Dabrafenib + Luminespib; first compound 0.003 µM): 0.699
- relative viability (Dabrafenib + Luminespib; first compound 0.009487 µM): 0.961
- relative viability (Dabrafenib + Luminespib; first compound 0.03 µM): 0.908
- relative viability (Dabrafenib + Luminespib; first compound 0.09487 µM): 0.96
- relative viability (Dabrafenib + Luminespib; first compound 0.3 µM): 0.871
- relative viability (Dabrafenib + Pemetrexed; first compound 0.003 µM): 0.564
- relative viability (Dabrafenib + Pemetrexed; first compound 0.009487 µM): 0.593
- relative viability (Dabrafenib + Pemetrexed; first compound 0.03 µM): 0.607
- relative viability (Dabrafenib + Pemetrexed; first compound 0.09487 µM): 0.511
- relative viability (Dabrafenib + Pemetrexed; first compound 0.3 µM): 0.643
- relative viability (VX-702 + OSI-027; first compound 0.02 µM): 0.666
- relative viability (VX-702 + OSI-027; first compound 0.2 µM): 0.684
- relative viability (VX-702 + OSI-027; first compound 0.6325 µM): 0.541
- relative viability (VX-702 + OSI-027; first compound 2 µM): 0.63

Cell Line: HARA
- relative viability (Dabrafenib + Crizotinib; first compound 0.003 µM): 0.975
- relative viability (Dabrafenib + Crizotinib; first compound 0.009487 µM): 1.04
- relative viability (Dabrafenib + Crizotinib; first compound 0.03 µM): 1.01
- relative viability (Dabrafenib + Crizotinib; first compound 0.09487 µM): 0.855
- relative viability (Dabrafenib + Crizotinib; first compound 0.3 µM): 1.11
- relative viability (Dabrafenib + Luminespib; first compound 0.003 µM): 0.83
- relative viability (Dabrafenib + Luminespib; first compound 0.009487 µM): 0.818
- relative viability (Dabrafenib + Luminespib; first compound 0.09487 µM): 0.621
- relative viability (Dabrafenib + Luminespib; first compound 0.3 µM): 0.726
- relative viability (Dabrafenib + Pemetrexed; first compound 0.009487 µM): 0.221
- relative viability (Dabrafenib + Pemetrexed; first compound 0.03 µM): 0.252
- relative viability (Dabrafenib + Pemetrexed; first compound 0.09487 µM): 0.238
- relative viability (Dabrafenib + Pemetrexed; first compound 0.3 µM): 0.247
- relative viability (VX-702 + OSI-027; first compound 0.02 µM): 0.458
- relative viability (VX-702 + OSI-027; first compound 0.2 µM): 0.412
- relative viability (VX-702 + OSI-027; first compound 0.6325 µM): 0.446
- relative viability (VX-702 + OSI-027; first compound 2 µM): 0.479

Cell Line: HCC-15
- relative viability (Dabrafenib + Crizotinib; first compound 0.003 µM): 0.906
- relative viability (Dabrafenib + Crizotinib; first compound 0.009487 µM): 0.881
- relative viability (Dabrafenib + Crizotinib; first compound 0.03 µM): 0.832
- relative viability (Dabrafenib + Crizotinib; first compound 0.09487 µM): 0.75
- relative viability (Dabrafenib + Crizotinib; first compound 0.3 µM): 0.827
- relative viability (Dabrafenib + Luminespib; first compound 0.003 µM): 0.379
- relative viability (Dabrafenib + Luminespib; first compound 0.009487 µM): 0.634
- relative viability (Dabrafenib + Luminespib; first compound 0.03 µM): 0.285
- relative viability (Dabrafenib + Luminespib; first compound 0.09487 µM): 0.0381
- relative viability (Dabrafenib + Luminespib; first compound 0.3 µM): 0.52
- relative viability (Dabrafenib + Pemetrexed; first compound 0.003 µM): 0.221
- relative viability (Dabrafenib + Pemetrexed; first compound 0.009487 µM): 0.225
- relative viability (Dabrafenib + Pemetrexed; first compound 0.03 µM): 0.227
- relative viability (Dabrafenib + Pemetrexed; first compound 0.09487 µM): 0.212
- relative viability (Dabrafenib + Pemetrexed; first compound 0.3 µM): 0.215
- relative viability (VX-702 + OSI-027; first compound 0.02 µM): 0.659
- relative viability (VX-702 + OSI-027; first compound 0.2 µM): 0.661
- relative viability (VX-702 + OSI-027; first compound 0.6325 µM): 0.69
- relative viability (VX-702 + OSI-027; first compound 2 µM): 0.702

Cell Line: HCC-44
- relative viability (Dabrafenib + Crizotinib; first compound 0.003 µM): 0.769
- relative viability (Dabrafenib + Crizotinib; first compound 0.009487 µM): 0.785
- relative viability (Dabrafenib + Crizotinib; first compound 0.03 µM): 0.847
- relative viability (Dabrafenib + Crizotinib; first compound 0.09487 µM): 0.718
- relative viability (Dabrafenib + Crizotinib; first compound 0.3 µM): 0.794
- relative viability (Dabrafenib + Luminespib; first compound 0.003 µM): 1.12
- relative viability (Dabrafenib + Luminespib; first compound 0.009487 µM): 1.01
- relative viability (Dabrafenib + Luminespib; first compound 0.03 µM): 1.17
- relative viability (Dabrafenib + Luminespib; first compound 0.09487 µM): 0.98
- relative viability (Dabrafenib + Luminespib; first compound 0.3 µM): 0.861
- relative viability (Dabrafenib + Pemetrexed; first compound 0.003 µM): 0.61
- relative viability (Dabrafenib + Pemetrexed; first compound 0.009487 µM): 0.58
- relative viability (Dabrafenib + Pemetrexed; first compound 0.03 µM): 0.697
- relative viability (Dabrafenib + Pemetrexed; first compound 0.09487 µM): 0.598
- relative viability (Dabrafenib + Pemetrexed; first compound 0.3 µM): 0.651
- relative viability (VX-702 + OSI-027; first compound 0.02 µM): 0.48
- relative viability (VX-702 + OSI-027; first compound 0.2 µM): 0.433
- relative viability (VX-702 + OSI-027; first compound 0.6325 µM): 0.491
- relative viability (VX-702 + OSI-027; first compound 2 µM): 0.485

Cell Line: HCC-78
- relative viability (Dabrafenib + Crizotinib; first compound 0.009487 µM): 0.403
- relative viability (Dabrafenib + Crizotinib; first compound 0.03 µM): 0.278
- relative viability (Dabrafenib + Crizotinib; first compound 0.09487 µM): 0.329
- relative viability (Dabrafenib + Crizotinib; first compound 0.3 µM): 0.362
- relative viability (Dabrafenib + Pemetrexed; first compound 0.009487 µM): 0.935
- relative viability (Dabrafenib + Pemetrexed; first compound 0.03 µM): 0.91
- relative viability (Dabrafenib + Pemetrexed; first compound 0.09487 µM): 0.879
- relative viability (Dabrafenib + Pemetrexed; first compound 0.3 µM): 0.795
- relative viability (VX-702 + OSI-027; first compound 0.02 µM): 0.364
- relative viability (VX-702 + OSI-027; first compound 0.2 µM): 0.358
- relative viability (VX-702 + OSI-027; first compound 0.6325 µM): 0.311
- relative viability (VX-702 + OSI-027; first compound 2 µM): 0.32

Cell Line: HCC-366
- relative viability (Dabrafenib + Crizotinib; first compound 0.009487 µM): 0.542
- relative viability (Dabrafenib + Crizotinib; first compound 0.03 µM): 0.436
- relative viability (Dabrafenib + Crizotinib; first compound 0.09487 µM): 0.44
- relative viability (Dabrafenib + Crizotinib; first compound 0.3 µM): 0.572
- relative viability (Dabrafenib + Pemetrexed; first compound 0.003 µM): 0.216
- relative viability (Dabrafenib + Pemetrexed; first compound 0.009487 µM): 0.0959
- relative viability (Dabrafenib + Pemetrexed; first compound 0.03 µM): 0.172
- relative viability (Dabrafenib + Pemetrexed; first compound 0.09487 µM): 0.124
- relative viability (Dabrafenib + Pemetrexed; first compound 0.3 µM): 0.193
- relative viability (VX-702 + OSI-027; first compound 0.02 µM): 1.09
- relative viability (VX-702 + OSI-027; first compound 0.2 µM): 0.899
- relative viability (VX-702 + OSI-027; first compound 0.6325 µM): 0.932
- relative viability (VX-702 + OSI-027; first compound 2 µM): 0.107

Cell Line: HCC-827
- relative viability (Dabrafenib + Crizotinib; first compound 0.003 µM): 0.873
- relative viability (Dabrafenib + Crizotinib; first compound 0.009487 µM): 0.945
- relative viability (Dabrafenib + Crizotinib; first compound 0.03 µM): 0.864
- relative viability (Dabrafenib + Crizotinib; first compound 0.09487 µM): 0.696
- relative viability (Dabrafenib + Crizotinib; first compound 0.3 µM): 0.942
- relative viability (Dabrafenib + Luminespib; first compound 0.003 µM): 0.387
- relative viability (Dabrafenib + Luminespib; first compound 0.009487 µM): 0.986
- relative viability (Dabrafenib + Luminespib; first compound 0.03 µM): 0.308
- relative viability (Dabrafenib + Luminespib; first compound 0.3 µM): 0.518
- relative viability (Dabrafenib + Pemetrexed; first compound 0.003 µM): 0.224
- relative viability (Dabrafenib + Pemetrexed; first compound 0.009487 µM): 0.288
- relative viability (Dabrafenib + Pemetrexed; first compound 0.03 µM): 0.243
- relative viability (Dabrafenib + Pemetrexed; first compound 0.3 µM): 0.281
- relative viability (VX-702 + OSI-027; first compound 0.02 µM): 0.828
- relative viability (VX-702 + OSI-027; first compound 0.2 µM): 0.839
- relative viability (VX-702 + OSI-027; first compound 0.6325 µM): 0.688
- relative viability (VX-702 + OSI-027; first compound 2 µM): 0.273
